The target in one series is T1, OATP1B1 (Homo sapiens, UniProt Q9Y6L6).
T1 construct: expressed in transfected cells; host or cells: MDCKII
T1 sequence (Q9Y6L6 1-691): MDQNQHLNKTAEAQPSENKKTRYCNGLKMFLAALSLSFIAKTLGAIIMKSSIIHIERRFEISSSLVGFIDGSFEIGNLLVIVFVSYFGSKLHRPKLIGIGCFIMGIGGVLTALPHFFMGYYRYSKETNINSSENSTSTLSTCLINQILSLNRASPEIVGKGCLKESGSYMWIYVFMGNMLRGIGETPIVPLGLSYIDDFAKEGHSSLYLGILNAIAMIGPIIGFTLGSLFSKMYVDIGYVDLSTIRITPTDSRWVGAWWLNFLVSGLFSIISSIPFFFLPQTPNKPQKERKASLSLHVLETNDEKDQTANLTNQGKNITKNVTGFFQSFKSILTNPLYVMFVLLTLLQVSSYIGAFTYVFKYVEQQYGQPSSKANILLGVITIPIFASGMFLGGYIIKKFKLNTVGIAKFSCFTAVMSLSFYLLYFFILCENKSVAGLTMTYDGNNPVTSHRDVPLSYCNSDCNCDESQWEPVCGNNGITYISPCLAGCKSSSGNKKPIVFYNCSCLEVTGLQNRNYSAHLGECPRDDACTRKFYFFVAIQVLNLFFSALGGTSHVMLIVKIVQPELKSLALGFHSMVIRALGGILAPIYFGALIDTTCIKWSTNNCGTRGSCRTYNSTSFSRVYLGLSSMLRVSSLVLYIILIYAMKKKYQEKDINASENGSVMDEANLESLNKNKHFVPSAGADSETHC
In words: Uptake in MDCKⅡ-OATP1B1 cells. The note with it: MDCKⅡ-OATP1B1, 30, 60 µmol/L, 20 or 40 min. In kind it is cell-based. As for the experimental part: Figure S4 Uptake of IMM-H004G in MDCKⅡ-OATP1B1 and MDCKⅡ-OATP1B3 cells. (a)
RSV (rosuvastatin, 30 µmol/L) is used as a positive group in MDCKⅡ-OATP1B1 cells. (b)
E17βG (estradiol-17β-glucuronide, 5 µmol/L) is used as a positive group in
MDCKⅡ-OATP1B3 cells. (c) IMM-H004G (30, 60 µmol/L) was incubated with
MDCKⅡ-OATP1B1 and MDCKⅡ-OATP1B3 cells for 20 or 40 min. The OATP
pan-inhibitor CsA (cyclosporin A) is 10 µmol/L. n=3 for positive substrates, and n=2 for
IMM-H004G. ***p < 0.001, **p < 0.01, *p < 0.05 vs. control group. ns, not significant.
(1 picture or pasted object on this page, not shown here)

A further series concerns the target T2, OATP1A2 (Homo sapiens, UniProt P46721).
T2 construct: host or cells: CHO
T2 sequence (P46721 1-670): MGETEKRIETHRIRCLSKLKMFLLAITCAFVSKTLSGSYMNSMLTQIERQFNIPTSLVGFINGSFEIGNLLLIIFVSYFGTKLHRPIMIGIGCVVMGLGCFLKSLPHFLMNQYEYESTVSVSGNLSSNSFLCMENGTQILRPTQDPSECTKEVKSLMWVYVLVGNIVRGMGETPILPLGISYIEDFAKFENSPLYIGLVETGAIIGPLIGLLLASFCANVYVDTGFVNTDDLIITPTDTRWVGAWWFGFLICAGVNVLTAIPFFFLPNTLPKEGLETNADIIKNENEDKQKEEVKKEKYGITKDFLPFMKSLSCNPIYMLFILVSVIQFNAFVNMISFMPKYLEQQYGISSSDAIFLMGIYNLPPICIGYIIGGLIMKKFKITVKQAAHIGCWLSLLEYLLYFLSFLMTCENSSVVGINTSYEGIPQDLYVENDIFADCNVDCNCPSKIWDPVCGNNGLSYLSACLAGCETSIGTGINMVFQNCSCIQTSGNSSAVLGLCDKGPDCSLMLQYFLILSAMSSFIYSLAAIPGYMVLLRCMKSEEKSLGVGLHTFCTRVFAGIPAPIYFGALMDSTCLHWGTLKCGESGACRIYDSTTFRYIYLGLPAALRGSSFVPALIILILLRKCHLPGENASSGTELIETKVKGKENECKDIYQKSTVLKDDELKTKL
Kind of series: Uptake in CHO-OATP1A2 overexpressing cells. The series is classed as cell-based. The note with it: CHO-OATP1A2 vs mock, 10 min; IMM-H004G 10 μmol/L. The text has this: CHO cells and MDCKⅡ cells were stably transfected with lentiviruses carrying human SCLO1A2 (encoding OATP1A2) and SCLO2B1 (encoding OATP2B1), respectively. Cell transfected with lentiviruses carrying empty vectors served as control. Lentiviral plasmid packages were obtained from OBiO Technology (Shanghai, China), and procedures followed the instructions of the virus manual. Stably transfected cells were routinely grown in a 100 mm dish in DMEM with 10% fetal bovine serum. Prior to the experiments, the seeding density of the overexpressing cells in 24-well plates was 4 × 10^5 cells per well, and the medium was supplemented with 2 mM sodium butyrate for 24 h. The cultured cells were washed twice with prewarmed HBSS after removing the medium and then treated with 10 μmol/L IMM-H004G and 100 μmol/L rifampicin (or an equal amount of solvent dimethyl sulfoxide) for 10 min. After incubation, the cells were washed four times with cold HBSS. Follow-up sample processing procedures were as described in Section 2.3.1. E17βG (5 μmol/L) and rosuvastatin (10 μmol/L) were used as positive substrates in CHO-OATP1A2 and MDCKⅡ-OATP2B1 cells, respectively. The MDCKⅡ-MDR1 cells were previously established by our laboratory.

For another series, the system named is hCMEC/D3 cells. Kind of series: In vitro metabolism in human brain cells (hCMEC/D3). The series is classed as in vitro ADME. Conditions: IMM-H004 1–100 μmol/L. On the procedure: (§1) SH-SY5Y, HEB, and hCMEC/D3 cells were utilized to investigate the in vitro metabolism of IMM-H004 and IMM-H004G in the brain. SH-SY5Y and HEB cells were cultured routinely in Dulbecco’s modified Eagle’s medium (DMEM) containing 10% fetal bovine serum and a 100 U/mL penicillin–100 μg/mL streptomycin solution. hCMEC/D3 cells were seeded on collagen type I coated 24-well plates and cultured in EndoGRO™-MV complete medium following the manufacturer’s guidelines. The cells were incubated at 37 °C, with 5% CO2, and were maintained in a humidified environment. Once the confluence reached 70–80%, the cells were digested using a 0.25% trypsin–EDTA solution, centrifuged at 200× g for 5 min, and then resuspended in a fresh culture medium. For each experiment, after seeding and 24 h incubation, the cells were washed twice with a prewarmed culture medium, and then IMM-H004 or IMM-H004G (1–100 μmol/L) dissolved in the culture medium was added. Incubation was carried out at 37 °C for 5 h or 24 h. After incubation, the supernatants were collected. Subsequently, the cells were washed with cold HBSS three times and lysed in a RIPA lysis buffer (Beyotime Inc., Shanghai, China). The concentrations of IMM-H004 and IMM-H004G were determined by liquid chromatography with tandem mass spectrometry (LC-MS/MS).

A further series deals with HEB cells. Kind of series: In vitro metabolism in human brain cells (HEB). Conditions: IMM-H004 1–100 μmol/L, up to 5 h. In kind it is in vitro ADME. As for the experimental part: as §1
The next series relates to SH-SY5Y cells. In words: In vitro metabolism in human brain cells (SH-SY5Y). In kind it is in vitro ADME. Conditions: IMM-H004 1–100 μmol/L. On the procedure: as §1

Consider `COc1cc(OC2OC(C(=O)O)C(O)C(O)C2O)cc2oc(=O)c(N3CCN(C)CC3)c(C)c12` (centres unmarked) [IMM-H004G], for which the “uptake increase in OATP1B1-overexpressing cells compared to control cells” value on OATP1B1 is “did not exceed a tenfold increase”. The “uptake increase in OATP1A2-overexpressing cells compared to control cells” value on OATP1A2 is 9.7 fold.

As to `COc1cc(O)cc2oc(=O)c(N3CCN(C)CC3)c(C)c12` [IMM-H004], the “production of IMM-H004G from IMM-H004” value in the series with hCMEC/D3 cells is “not detected”; with HEB cells, “depended on both time and concentration”; in the series with SH-SY5Y cells it was “not detected”.

The record behind these values is paper PMC10975012, “The Active Glucuronide Metabolite of the Brain Protectant IMM-H004 with Poor Blood–Brain Barrier Permeability Demonstrates a High Partition in the Rat Brain via Multiple Mechanisms” (Pharmaceutics, 2024).
